Test results published in patent US11053282B2, “Peptoid affinity ligands” (MIKE-ANN, LLC, priority 2016, dated 2021).
pKd: −log10 of the molar value. *1 amine or outer side, *2 acyl side, *3 side chain or, on linkers, in order; H or OH if unused. Where a SMILES comes first, the peptide text is derived from it. [ ]: non-standard residue; d: D form. ξ: configuration not given here. Gly(N(CH2)2(3-indolyl)) = O=C(O)CNCCc1c[nH]c2ccccc12; NGly(CH2(3-pyridyl)) = O=C(O)CNCc1cccnc1; ξW = NC(Cc1c[nH]c2ccccc12)C(=O)O; Gly(N(CH2)3NH2) = NCCCNCC(=O)O; Cit = NC(=O)NCCC[CH](N)C(=O)O; Cysteamide = C(CS[*:3])N[*:1]; ξCit = NC(=O)NCCCC(N)C(=O)O; ξH = NC(Cc1c[nH]cn1)C(=O)O; Nphe = O=C(O)CNCc1ccccc1; NPrGly = CCCNCC(=O)O; ξV = CC(C)C(N)C(=O)O

Target: polyclonal human IgG
Assay: Adsorption isotherm of peptoid affinity resins against polyclonal human IgG
Type: binding
Conditions: IgG in PBS, 30 minutes; for pKd: affinity constant from hyperbola fit of adsorption isotherm, peptoid conjugated to chromatographic resin, read-out: Kd × 10^−6
Description: The affinity for the peptoid-resin combinations was determined by measuring the adsorption isotherm of each resin against polyclonal human IgG (Pakimna et al., J Applied Sci., 12(11): 1136-1141, 2012). Briefly, 0.050 mL of 50% resin slurry was pipetted into 6 individual wells of a 96-well filter plate (0.45 micron, PVDF, Harvard Apparatus). The resin was washed with 2×250 μL PBS using a vacuum manifold. To an individual well, 0.25 mL of a human polyclonal IgG solution at different concentrations (10, 5, 2.5, 1.25, 0.625, and 0.3125 mg/mL) was added. The resin/IgG suspension was agitated gently on a rocking table for 30 minutes. The fluid was then collected via vacuum, and the resin was washed with 0.25 mL of PBS. The filtrate and wash were then analyzed by the BCA assay to determine the residual IgG concentration relative to the starting concentration of the solution.
The equilibrium concentrations were then used to determine the capacity of the resin at each IgG concentration using the following formula: q=Volumesample×(Initial Concentration−Equilibrium Concentration)/Volumeresin
A plot of q versus equilibrium concentration was generated and the data fit with a hyperbola to determine the affinity constant (Kd) and the maximum capacity (qmax) according to the below formula, where C=the equilibrium concentration of antibody in solution: q=qmax×C/(kd+C) Typical adsorption isotherm is shown in FIG. 2. Tabulated Kd and qmax data is found in Table 2.

[1] = maximum capacity (qmax) of resin from hyperbola fit of adsorption isotherm

SMILES	pKd	Qmax [1] [mg/mL]	Qmax (mg/mL) [1] [mg/mL]
CCCN(CC(=O)NCCS)C(=O)CN(CCc1c[nH]c2ccccc12)C(=O)CNC(=O)C(CCCNC(N)=O)NC(=O)CN(CCc1c[nH]c2ccccc12)C(=O)CNCc1cccnc1 (stereo not shown) [Ligand 12-65-1] (H-[NGly(CH2(3-pyridyl))][Gly(N(CH2)2(3-indolyl))][ξCit]G[Gly(N(CH2)2(3-indolyl))][NPrGly]-Cysteamide)	5.10	65	–
CCCN(CC(=O)NCCS)C(=O)CN(CCc1c[nH]c2ccccc12)C(=O)CNC(=O)C(CCCNC(N)=O)NC(=O)CN(CCc1c[nH]c2ccccc12)C(=O)[C@@H](N)Cc1c[nH]cn1 (stereo partly shown) [Ligand 12-65-2] (H-H[Gly(N(CH2)2(3-indolyl))][ξCit]G[Gly(N(CH2)2(3-indolyl))][NPrGly]-Cysteamide)	4.82	53	–
NC(=O)NCCCC(NC(=O)CN(Cc1ccccc1)C(=O)CNCc1cccnc1)C(=O)NC(CCCNC(N)=O)C(=O)N(CC(=O)NCCS)Cc1cccnc1 (stereo not shown) [Ligand 12-65-8] (H-[NGly(CH2(3-pyridyl))][Nphe][Cit][Cit][NGly(CH2(3-pyridyl))]-Cysteamide; configuration not given here)	5.44	–	57.
NC(=O)NCCCC(NC(=O)CN(CCc1c[nH]c2ccccc12)C(=O)CNCc1cccnc1)C(=O)N(CCc1c[nH]c2ccccc12)CC(=O)NCCS (stereo not shown) [Ligand 16-81-4] (H-[NGly(CH2(3-pyridyl))][Gly(N(CH2)2(3-indolyl))][ξCit][Gly(N(CH2)2(3-indolyl))]-Cysteamide)	5.54	64	–
CCCN(CC(=O)NCCS)C(=O)CN(CCc1c[nH]c2ccccc12)C(=O)CNC(=O)CN(CCCN)C(=O)C(Cc1c[nH]c2ccccc12)NC(=O)CNCc1cccnc1 (stereo not shown) [Ligand 16-83-3] (H-[NGly(CH2(3-pyridyl))][ξW][Gly(N(CH2)3NH2)]G[Gly(N(CH2)2(3-indolyl))][NPrGly]-Cysteamide)	5.14	51	–
CCCN(CC(=O)NCCS)C(=O)CN(CCc1c[nH]c2ccccc12)C(=O)CNC(=O)CN(CCCN)C(=O)CN(CCc1c[nH]c2ccccc12)C(=O)C(N)Cc1c[nH]cn1 (stereo not shown) [Ligand 16-83-5] (H-[ξH][Gly(N(CH2)2(3-indolyl))][Gly(N(CH2)3NH2)]G[Gly(N(CH2)2(3-indolyl))][NPrGly]-Cysteamide)	5.19	62	–
CC(C)C(NC(=O)CN(CCc1c[nH]c2ccccc12)C(=O)CNC(=O)CN(CCCN)C(=O)CN(CCc1c[nH]c2ccccc12)C(=O)CNCc1cccnc1)C(=O)NCCS (stereo not shown) [Ligand 16-83-6] (H-[NGly(CH2(3-pyridyl))][Gly(N(CH2)2(3-indolyl))][Gly(N(CH2)3NH2)]G[Gly(N(CH2)2(3-indolyl))][ξV]-Cysteamide)	5.34	56	–
NC(=O)NCCCC(N)C(=O)N(CCc1c[nH]c2ccccc12)CC(=O)N(CC(=O)N(CCc1c[nH]c2ccccc12)CC(=O)NCCS)Cc1cccnc1 (stereo not shown) [Ligand 16-83-9] (H-[ξCit][Gly(N(CH2)2(3-indolyl))][NGly(CH2(3-pyridyl))][Gly(N(CH2)2(3-indolyl))]-Cysteamide)	5.31	52	–

Now from value to compound, other results behind:

pKd	SMILES	Qmax [1] [mg/mL]	Qmax (mg/mL) [1] [mg/mL]
4.48	NC(=O)NCCCC(NC(=O)CN(Cc1ccccc1)C(=O)CNCc1cccnc1)C(=O)NC(CCCNC(N)=O)C(=O)NCCS (stereo not shown) [Ligand 12-55-6] (H-[NGly(CH2(3-pyridyl))][Nphe][Cit][Cit]-Cysteamide; configuration not given here)	97	–
5.44	NC(=O)NCCCC(N)C(=O)N(CC(=O)N(CCc1c[nH]c2ccccc12)CC(=O)NCC(=O)N(CCc1c[nH]c2ccccc12)CC(=O)NCCS)Cc1cccnc1 (stereo not shown) [Ligand 12-65-5] (H-[ξCit][NGly(CH2(3-pyridyl))][Gly(N(CH2)2(3-indolyl))]G[Gly(N(CH2)2(3-indolyl))]-Cysteamide)	64	–
5.28	CCCN(CC(=O)NCCS)C(=O)C(Cc1c[nH]c2ccccc12)NC(=O)CNC(=O)CN(CCCN)C(=O)CN(CCc1c[nH]c2ccccc12)C(=O)CNCc1cccnc1 (stereo not shown) [Ligand 16-83-2] (H-[NGly(CH2(3-pyridyl))][Gly(N(CH2)2(3-indolyl))][Gly(N(CH2)3NH2)]G[ξW][NPrGly]-Cysteamide)	49	–
5.11	NC(=O)NCCCC(NC(=O)CNCCc1c[nH]c2ccccc12)C(=O)N(CCc1c[nH]c2ccccc12)CC(=O)N(CC(=O)NCCS)Cc1cccnc1 (stereo not shown) [Ligand 16-83-7] (H-[Gly(N(CH2)2(3-indolyl))][ξCit][Gly(N(CH2)2(3-indolyl))][NGly(CH2(3-pyridyl))]-Cysteamide)	53	–
5.19	NC(=O)NCCCC(NC(=O)CN(CCc1c[nH]c2ccccc12)C(=O)CNCc1cccnc1)C(=O)NC(CCCNC(N)=O)C(=O)NCCS (stereo not shown) [Ligand 16-84-2]	48	–
5.31	NC(=O)NCCCC(N)C(=O)N(CC(=O)N(CCc1c[nH]c2ccccc12)CC(=O)N(CC(=O)NCCS)Cc1cccnc1)Cc1cccnc1 (stereo not shown) [Ligand 16-84-3] (H-[ξCit][NGly(CH2(3-pyridyl))][Gly(N(CH2)2(3-indolyl))][NGly(CH2(3-pyridyl))]-Cysteamide)	56	–
